Measurements reported in the CheMixHub viscosity set.

Assay: xn = mol fraction of the nth substance listed

O=S(=O)([O-])[O-].[Cu+2] + O
viscosity [mPa·s]
Settings	308.15 K	313.15 K	323.15 K
101.3 kPa, x1 = 0.00112	0.742	0.673	0.5823
101.3 kPa, x1 = 0.002247	0.7918	0.7176	0.6001
101.3 kPa, x1 = 0.004484	0.8376	0.7579	0.6314
101.3 kPa, x1 = 0.008927	0.9348	0.8476	0.7076
101.3 kPa, x1 = 0.0177	–	0.977	0.817
101.33 kPa, x1 = 0.000905	0.7428	0.6739	0.5628
101.33 kPa, x1 = 0.002718	0.7922	0.7182	0.6005
101.33 kPa, x1 = 0.00453	0.838	0.7585	0.6319
101.33 kPa, x1 = 0.006344	0.8866	0.8013	0.6685
101.33 kPa, x1 = 0.008159	0.9348	0.8482	0.7082

CCCCCCCCCCCCCC[P+](CCCCCC)(CCCCCC)CCCCCC.[O-]c1ccccc1 + O=C=O
Settings	viscosity [mPa·s]
298.15 K, 100 kPa, x2 = 0.5	368

OCc1ccccc1 + O=[N+]([O-])c1ccccc1
303.15 K, 101 kPa
Settings	viscosity [mPa·s]
x1 = 0.1725	1.292
x1 = 0.2352	1.292
x1 = 0.3083	1.389
x1 = 0.4517	1.657
x1 = 0.5919	2.015
x1 = 0.6592	2.234
x1 = 0.7706	2.658
x1 = 0.8314	2.956
x1 = 0.9106	3.486

NCCO + OCCO
101.33 kPa
Settings	viscosity [mPa·s]
293.15 K, x2 = 0.1246	29.94
293.15 K, x2 = 0.2055	32.9
293.15 K, x2 = 0.2907	35.07
293.15 K, x2 = 0.4172	36.01
293.15 K, x2 = 0.496	34.47
293.15 K, x2 = 0.5176	33.73
293.15 K, x2 = 0.6654	29.06
293.15 K, x2 = 0.701	28.14
293.15 K, x2 = 0.789	25.17
293.15 K, x2 = 0.8248	23.8
293.15 K, x2 = 0.8691	22.48
293.15 K, x2 = 0.9427	21.11
293.15 K, x2 = 0.9527	20.92
303.15 K, x1 = 0.155	16.74
303.15 K, x1 = 0.303	19.61
313.15 K, x1 = 0.155	11.41
313.15 K, x1 = 0.303	13.08
323.15 K, x1 = 0.155	8.112
323.15 K, x1 = 0.303	9.172

OCc1ccccc1 + OCCO
293.15 K, 101.33 kPa
Settings	viscosity [mPa·s]
x2 = 0.0946	7.031
x2 = 0.1648	7.627
x2 = 0.1834	7.781
x2 = 0.2979	8.824
x2 = 0.4721	10.98
x2 = 0.5503	12.18
x2 = 0.6255	13.48
x2 = 0.6888	14.69
x2 = 0.7556	16.05
x2 = 0.7929	16.82
x2 = 0.8219	17.42
x2 = 0.8789	18.75
x2 = 0.9113	19.36
